Data: patent US20220142959A1, “LEUCINE, ACETYL LEUCINE, AND RELATED ANALOGS FOR TREATING DISEASE” (priority 2019, published 2022)

What was measured:
TUNEL positive cells = experiment: TUNEL assay on brain sections after CCI induced TBI; format: in vivo; settings: injured mice fed with NALL vs vehicle fed TBI mice
Description: Controlled cortical impact (CCI) induced TBI was performed in male C57BL6/J mice (20-25 g). Briefly, after a 10-mm midline incision was made over the skull, the skin and fascia were retracted, and a 4-mm craniotomy was made on the central aspect of the left parietal bone of mice under surgical anesthesia (2-3% isoflurane evaporated in a gas mixture containing 70% N20 and 30% 02). Moderate injury was induced in the exposed brain by a custom microprocessor-controlled and compressed air driven pneumatic impactor of 3.5 mm diameter tip with the impact velocity of 6 m/s and a deformation depth of 2 mm.
N-Acetyl-L-Leucine (“NAL” or “NALL”) was dissolved in ethanol to prepare a 50 mg/ml solution which was then diluted in water to give a 10 mg/ml solution. About 0.25 ml of the NAL solution (10 mg/ml) was orally administered in mice at a […] (2.5 mg NAL/25 g mouse) via oral gavage each day after CCI induced TBI for 4 days. Mice were also fed with NAL at 0.5 mg/kg chow powder chow mixed with diet gel for up to 7 days after injury.
The level of α-fodrin cleavage products in NALL treated, vehicle treated sham, and TBI mouse cortices were determined by Western blot analysis and using the TUNEL assay to assess whether NALL treatment decreases cortical cell death after TBI. […]

LC3-II and APP-CTFs = experiment: EAL flux in NPC1 mice (cerebellum LC3-II and APP-CTFs); format: in vivo, mouse; settings: treated 3 weeks
From the text: FIG. 14 is a histogram of the ratio of LC3-II expression to βIII-tubulin in the cerebellum of mouse NPC1 brains at 9-12 weeks of age treated with ADLL, ALL, ADL, DLL, LL, DL, LLE, and miglustat (miglu.) for 3 weeks relative to untreated NPC1 cerebellum (n=4, mean±S.E.M).
FIG. 15 is a histogram of the ratio of APP-CTFs: full-length APP expression in the cerebellum of mouse NPC1 brains at 9-12 weeks of age treated with ADLL, ALL, ADL, DLL, LL, DL, LLE, and miglustat (miglu.) for 3 weeks relative to untreated NPC1 cerebellum (n=4, mean±S.E.M).
FIG. 16 is a histogram of the ratio of APP-CTF-6: full-length APP expression in the cerebellum of mouse NPC1 brains at 9-12 weeks of age treated with ADLL, ALL, ADL, DLL, LL, DL, and LLE for 3 weeks relative to untreated NPC1 cerebellum.
FIG. 17 is a histogram of the ratio of APP-CTF-7: full-length APP expression in the cerebellum of mouse NPC1 brains at 9-12 weeks of age treated with ADLL, ALL, ADL, DLL, LL, DL, and LLE for 3 weeks relative to untreated NPC1 cerebellum (n=4, mean±S.E.M).
The efficacy of ADLL, ALL, ADL, DLL, LL, DL, and LLE in alleviating the impairment of EAL flux in NPC1 mice was investigated. […] Without wishing to be bound by any particular theory, it is possible that ADL and LLE reduced autophagic vacuole (AV) build-up by inhibiting autophagosome formation, possibly through the activation mTORC1. […] Also, acetyl L-leucine (ALL), acetyl D-leucine (ADL) and L-leucine (LL) reduced CTF-7 expression, indicating some improvement in lysosomal proteolysis (FIG. 17).

[1] = test system: CD68 positive activated microglia; experiment: CD68 positive activated microglia in cerebellum of Npc1−/− mice; format: in vivo; settings: 59 days of age, compared to Npc1−/− UT
From the text: FIG. 46 is an image showing cerebellar Purkinje cell loss progressing from anterior to posterior lobes and microglial activation in untreated Npc1^−/− mice and Npc1^−/− mice treated with ADLL, ALL, and ADL. Cerebellums were stained with calbindin-b (Purkinje cells) or CD68 (activated microglia).
FIG. 48 is a scatter graph showing frequency of CD68 positive activated microglia at 59 days of age in untreated Npc1^−/− mice and Npc1^−/− mice treated with ADLL, ALL, and ADL. CD68 cell density was measured in the cerebellum. n=5 animals per group. Mean±SD, *** p<0.0009 (one-way ANOVA).
The combination of increased survival of neurons and a less inflammatory environment in the brain could improve brain function, quality of life, and delay the progression of disease in human subjects.

In the case of CC(=O)N[C@@H](CC(C)C)C(=O)O [ALL, acetyl-L-leucine], the “TUNEL positive cells in brain sections” value (TUNEL positive cells) is reported as “Lower levels”, the “CTF-7 expression / clearance” value (LC3-II and APP-CTFs) is reported as “reduced” and the “reduction of frequency of CD68 positive activated microglia” value [1] is reported as 20%.
